Data as given in ChEMBL document CHEMBL4392851, “Synthesis and structure-activity relationships for new 6-fluoroquinoline derivatives with antiplasmodial activity” (Bioorg Med Chem, 2019).

How the values were obtained:
[1] = Selectivity index, ratio of IC50 for rat L6 cells to IC50 for chloroquine and pyrimethamine resistant Plasmodium falciparum K1; assay type: toxicity; conditions: read-out: Ratio IC50
Plasmodium falciparum [2] = experiment: Antiplasmodial activity against chloroquine-sensitive Plasmodium falciparum NF54 erythrocytic stages incubated for 48 hrs by [3H]-hypoxanthine incorporation assay; assay type: functional, organism-based
[3] = Selectivity index, ratio of IC50 for rat L6 cells to IC50 for chloroquine-sensitive Plasmodium falciparum NF54 erythrocytic stages; assay type: toxicity; conditions: read-out: Ratio IC50
Plasmodium falciparum [4] = experiment: Antiplasmodial activity against chloroquine and pyrimethamine resistant Plasmodium falciparum K1 erythrocytic stages incubated for 48 hrs by [3H]-hypoxanthine incorporation assay; assay type: functional, organism-based
L6 = experiment: Cytotoxicity in rat L6 cells assessed as reduction in cell viability incubated for 72 hrs by alamar blue assay; assay type: cell-based; conditions: L6, 72 h
[5] = Effective permeability by PAMPA; assay type: ADME; conditions: read-out: Peff
Plasmodium berghei [6] = test system: Plasmodium berghei
Description: Antiplasmodial activity against GFP-transfected Plasmodium berghei ANKA infected in NMRI mouse assessed as mean survival days at 50 mg/kg/day, ip for consecutive 4 days (4, 24, 48 and 72 hrs post infection) and measured up to 20 days after infection (Rvb = 6 to 7 days)

Plasmodium berghei [7] = experiment: Antiplasmodial activity against GFP-transfected Plasmodium berghei ANKA infected in NMRI mouse assessed as reduction in parasitaemia at 50 mg/kg/day, ip for consecutive 4 days (4, 24, 48 and 72 hrs post infection) and measured up to 20 days after infection relative to untreated control; assay type: functional; set-up: scale not given: the % may be the effect or the level left

Row | Compound | selectivity ratio [1] | IC50 (Plasmodium falciparum [2]) [nM] | selectivity ratio [3] | IC50 (Plasmodium falciparum [4]) [nM] | IC50 (L6; read-out: IC50) [µM] | Papp [5] [×10⁻⁶ cm/s] | MSD (Plasmodium berghei [6]) [days] | Activity (Plasmodium berghei [7]) [%] | IC50 (L6) [µM]
1 | O=C(CN1CCCC1)Nc1cc(-c2ccc(CN3CCOCC3)cc2)nc2ccc(F)cc12 | 69.3 | 1040 | 54.6 | 820 | 56.8 | – | – | – | –
2 | Fc1ccc2nc(-c3ccc(CN4CCOCC4)cc3)cc(CNCCN3CCN(c4ccccc4)CC3)c2c1 | 396 | 20 | 732 | 37 | 14.6 | 2.39 | – | – | –
3 | CC(C)(C)OC(=O)N1CCN(CCNCc2cc(-c3ccc(CN4CCOCC4)cc3)nc3ccc(F)cc23)CC1 | 484 | 18 | 1100 | 41 | 19.8 | 4.57 | – | – | –
4 | CC(C)(C)OC(=O)N1CCN(CCC(=O)Nc2cc(-c3ccc(CN4CCOCC4)cc3)nc3ccc(F)cc23)CC1 | 187 | 260 | 216 | 300 | 56.2 | – | – | – | –
5 | O=C(c1cc(-c2ccc(CN3CCOCC3)cc2)nc2ccc(F)cc12)N1CCC(O)CC1 | – | 64000 | 1.57 | – | 101 | 3.67 | – | – | –
6 | CC(C)(C)C(=O)N1CCN(CCNC(=O)c2cc(-c3ccc(CN4CCOCC4)cc3)nc3ccc(F)cc23)CC1 | – | 5 | 16000 | – | 80 | 6.11 | 4 | 25.2 | –
7 | Nc1cc(-c2ccc(CN3CCOCC3)cc2)nc2ccc(F)cc12 | 55 | 230 | 93.3 | 390 | 21.5 | – | – | – | –
8 | CCC(=O)N1CCN(C(=O)c2cc(-c3ccc(CN4CCOCC4)cc3)nc3ccc(F)cc23)CC1 | – | 7380 | 12.6 | – | 92.4 | 5.53 | – | – | –
9 | O=C(c1cc(-c2ccc(CN3CCOCC3)cc2)nc2ccc(F)cc12)N1CCCCC1 | – | 37700 | 2.69 | – | 102 | – | – | – | –
10 | CCCN1CCN(Cc2cc(-c3ccc(CN4CCOCC4)cc3)nc3ccc(F)cc23)CC1 | – | 1940 | 7.67 | – | 14.9 | 9.26 | – | – | –
11 | CN1CCN(Cc2ccc(-c3cc(NC(=O)CCN4CCCC4)c4cc(F)ccc4n3)cc2)CC1 | 5370 | 2 | 7780 | 2.9 | 15.6 | – | 16 | 99.6 | –
12 | CC(C)(C)C(=O)N1CCN(CC(=O)Nc2cc(-c3ccc(CN4CCOCC4)cc3)nc3ccc(F)cc23)CC1 | 15.2 | 9570 | 7.82 | 4910 | 74.8 | – | – | – | –
13 | CCOC(=O)N1CCC(NC(=O)c2cc(-c3ccc(CN4CCOCC4)cc3)nc3ccc(F)cc23)CC1 | – | 7130 | 12.7 | – | 90.5 | 0.19 | – | – | –
14 | O=C(NCCc1ccccc1)c1cc(-c2ccc(CN3CCOCC3)cc2)nc2ccc(F)cc12 | – | 4620 | 3.57 | – | 16.5 | – | – | – | –
15 | Fc1ccc2nc(-c3ccc(CN4CCOCC4)cc3)cc(CNCCN3CCCC3)c2c1 | 48900 | 1.1 | 48900 | 1.1 | 53.8 | 4.55 | 10 | 99.4 | –
16 | CC(C)(C)C(=O)N1CCN(CCC(=O)Nc2cc(-c3ccc(CN4CCOCC4)cc3)nc3ccc(F)cc23)CC1 | 124 | 530 | 83.9 | 360 | 44.5 | – | – | – | –
17 | CC(C)(C)OC(=O)N1CCN(CC(=O)Nc2cc(-c3ccc(CN4CCOCC4)cc3)nc3ccc(F)cc23)CC1 | 25.5 | 7530 | 11.8 | 3500 | 89.2 | – | – | – | –
18 | O=C(NCc1ccccc1)c1cc(-c2ccc(CN3CCOCC3)cc2)nc2ccc(F)cc12 | – | 5990 | 17.2 | – | 103 | – | – | – | –
19 | CC(C)(C)N1CCN(CCNC(=O)c2cc(-c3ccc(CN4CCOCC4)cc3)nc3ccc(F)cc23)CC1 | – | 3110 | 32.1 | – | 100 | 2.09 | – | – | –
20 | O=C(CCN1CCCC1)Nc1cc(-c2ccc(CN3CCOCC3)cc2)nc2ccc(F)cc12 | 11200 | 4 | 30800 | 11 | 123 | 10.1 | 4 | 33.9 | –
21 | CN1CCN(CCC(=O)Nc2cc(-c3ccc(CN4CCOCC4)cc3)nc3ccc(F)cc23)CC1 | – | 610 | 51.8 | – | 31.6 | – | – | – | –
22 | CCC(=O)N1CCN(Cc2cc(-c3ccc(CN4CCOCC4)cc3)nc3ccc(F)cc23)CC1 | – | 10100 | 3.83 | – | 38.6 | 7.15 | – | – | –
23 | O=C(NCC(F)(F)F)c1cc(-c2ccc(CN3CCOCC3)cc2)nc2ccc(F)cc12 | – | 8780 | 11.3 | – | 98.9 | – | – | – | –
24 | O=C(NC1CCNCC1)c1cc(-c2ccc(CN3CCOCC3)cc2)nc2ccc(F)cc12 | – | 990 | 69.9 | – | 69.2 | – | – | – | –
25 | O=C(NCCc1ccccn1)c1cc(-c2ccc(CN3CCOCC3)cc2)nc2ccc(F)cc12 | – | 14900 | 3.6 | – | 53.5 | 9.35 | – | – | –
26 | CC(NC(=O)c1cc(-c2ccc(CN3CCOCC3)cc2)nc2ccc(F)cc12)c1ccccc1 (racemic) | – | 5600 | 12.9 | – | 72.4 | – | – | – | –
27 | C[C@@H]1CC[C@H]2[C@@H](C)C(=O)O[C@@H]3O[C@@]4(C)CC[C@@H]1[C@]32OO4 [ARTEMISININ] | 70400 | – | – | 6.4 | – | – | – | – | –
28 | CCN(CC)CCCC(C)Nc1ccnc2cc(Cl)ccc12 (stereo not given) [CHLOROQUINE] | – | – | – | – | – | – | 20 | 99.6 | –
29 | COc1cc([C@@H]2c3cc4c(cc3[C@H](O)[C@H]3COC(=O)[C@H]23)OCO4)cc(OC)c1OC [PODOFILOX] | – | – | – | – | – | – | – | – | 0.012
